Experimental data from publication PMC11395096, “Study of Pentacyclic Triterpenes from Lyophilised Aguaje: Anti-Inflammatory and Antioxidant Properties” (International Journal of Molecular Sciences, 2024).
Starred links: 1 amine or outer side, 2 acyl side, 3 side chain; linkers in the order of their positions; H or OH if unused. Positions of bridges follow the written chain, without caps; N, C: chain ends. Non-standard residues stand in square brackets, D forms with d. Residues, ends and D or L forms follow the SMILES beside them. Chains are numbered I, II in the order given. Actinocin(9to1) = Cc1c2oc3c(C)ccc(C(=O)[*:1])c3nc-2c(C(=O)[*:2])c(N)c1=O; NMeV = CN[C@H](C(=O)O)C(C)C; Sar = CNCC(=O)O

What was measured:
[1] = tested on: Nrf2; details: cited from earlier work
[2] = NR (neutral red) viability assay, IC-21 cells; type: cell-based, Mus musculus; details: mouse, IC-21, 72 h
Text: (§1) The IC-21 (Mus musculus macrophage cells, TIB-186) and RAW 264.7 (Mus musculus macrophage cells, TIB-71) cell lines used in this study were obtained from the American Type Culture Collection (ATCC, Manassas, VA, USA). The selection of IC-21 and RAW 264.7 cell lines for studies on inflammation and antioxidant activity is based on two main reasons: the cell type and their origin. Firstly, both IC-21 and RAW 264.7 cell lines are macrophages, which play a crucial role in the immune system, being essential for the inflammatory response and regulation of oxidative stress. These cells have the capacity to produce pro-inflammatory cytokines, express transcription factors such as NF-κB, and generate NO, making them ideal models to understand inflammatory mechanisms. Moreover, macrophages are involved in the activation of Nrf2, a transcription factor critical for the antioxidant response, allowing these cell lines to enable a comprehensive assessment of antioxidant activity within an inflammatory context.
(§2) Cultivated in a Roswell Park Memorial Institute (RPMI) 1640 medium (RPMI 1640 Sigma-Aldrich, CAS No. R7755, St. Louis, MO, USA) supplemented with 2 mM L-glutamine (≥99% Sigma-Aldrich, CAS No. 56-85-9, St. Louis, MO, USA), 10% foetal bovine serum (FBS Sigma-Aldrich, CAS No. TMS-016, St. Louis, MO, USA), and 10,000 units of penicillin and 10 mg streptomycin mL^−1 (Sigma-Aldrich, CAS No. P4333, St. Louis, MO, USA) in culture flasks, the cells were maintained in an incubator under normoxic conditions (20–21% O2) and a humidified atmosphere (5% CO2, at 37 °C).
(§3) Stock solutions of the samples (extracts and compounds) were prepared at a concentration of 1 mM using dimethyl sulfoxide (DMSO ≥ 99.9% Sigma-Aldrich, CAS No. 67-68-5, St. Louis, MO, USA) as the solvent. Dilutions from these stock solutions were then made to achieve concentrations between 100 and 0.20 μg mL^−1 or μM in the culture medium, which contained 0.5% DMSO. A control group consisting only of the culture medium with 0.5% DMSO was also included to determine its potential cytotoxicity.
(§4) The 50% cytotoxic concentration (CC50), 50% inhibitory concentration (IC50), and half-maximal effective concentration (EC50) values were calculated using the sigmoidal dose–response function. All experiments were conducted in triplicate, and the data obtained were expressed as the mean and standard deviation. A two-way analysis of variance (ANOVA) combined with Dunnett’s multiple comparisons test (p < 0.001) was performed for the cytotoxicity, NF-κB inhibition, NO inhibition and Nrf2 activation assays, while a one-way ordinary ANOVA combined with Dunnett’s multiple comparisons test (p < 0.001) was conducted for the SOD assay. All statistical analyses were performed using GraphPad Prism version 10.0.0 (La Jolla, CA, USA, www.graphpad.com, accessed on 28 August 2024).
(§5) Cell viability was evaluated using a colorimetric assay in 96-well plates, employing 3-amino-7-dimethylamino-2-methylphenazine hydrochloride salt reagent (NR, Sigma-Aldrich, CAS No. 553-24-2, St. Louis, MO, USA). ACTD (≥95% Sigma-Aldrich, CAS No. 50-76-0, St. Louis, MO, USA) was used as a positive control, with a CC50 value of 0.01 μg mL^−1 for the extracts, or 0.008 μM for the compounds. The IC-21 and RAW 264.7 cell lines were cultured in 96-well plates at 37 °C with 5% CO2 until >90% confluency was achieved (1 × 10^4 cells per well). Subsequently, the cultures were treated with sample dilutions (100–0.20 μg mL^−1 or μM) for 72 h at 37 °C with 5% CO2 in phenol red-free RPMI. The supernatant was then discarded, and the cells were washed with phosphate-buffered saline (PBS) before being incubated with […] NR (50 μg mL^−1; 173 μM) for 3 h at 37 °C with 5% CO2. NR labelling was performed after DMSO treatment. […]

[3] = NR (neutral red) viability assay, RAW 264.7 cells; type: cell-based, Mus musculus; details: mouse, RAW 264.7, 72 h
Text: as §1, §2, §3, §4, §5

[4] = NR viability assay, value not assigned to one cell line; type: cell-based, Mus musculus; details: mouse
Experimental: (§6) Cell viability was evaluated using a colorimetric assay in 96-well plates, employing 3-amino-7-dimethylamino-2-methylphenazine hydrochloride salt reagent (NR, Sigma-Aldrich, CAS No. 553-24-2, St. Louis, MO, USA). ACTD (≥95% Sigma-Aldrich, CAS No. 50-76-0, St. Louis, MO, USA) was used as a positive control, with a CC50 value of 0.01 μg mL^−1 for the extracts, or 0.008 μM for the compounds. The IC-21 and RAW 264.7 cell lines were cultured in 96-well plates at 37 °C with 5% CO2 until >90% confluency was achieved (1 × 10^4 cells per well). Subsequently, the cultures were treated with sample dilutions (100–0.20 μg mL^−1 or μM) for 72 h at 37 °C with 5% CO2 in phenol red-free RPMI. The supernatant was then discarded, and the cells were washed with phosphate-buffered saline (PBS) before being incubated with […] NR (50 μg mL^−1; 173 μM) for 3 h at 37 °C with 5% CO2. NR labelling was performed after DMSO treatment. After incubation, the labelled sample dilutions were rapidly washed with a fixative solution composed of 1% calcium chloride (CaCl2 Sigma-Aldrich, CAS No. 10043-52-4, St. Louis, MO, USA) and 0.5% formaldehyde solution (≥36.0% in H2O Sigma-Aldrich, CAS No. 50-00-0, St. Louis, MO, USA), then diluted with 100 μL of the NR extraction solution. Finally, the plates were read at 540 nm using a microplate reader (Anthos 2020, version 2.0.5, Biochrom Ltd., Cambridge, UK).

[5] = tested on: IC-21 and RAW 264.7 cell lines; test: as above; type: cell-based, Mus musculus; details: across IC-21 and RAW 264.7 / cell line not given, compounds series
Experimental: as §6

SMILES | concentration activating the Nrf2 signalling pathway [1] | CC50 at 72 h ([2]; compounds series) | CC50 at 72 h ([2]; extracts series) | CC50 at 72 h ([3]; compounds series) | CC50 at 72 h ([3]; extracts series) | CC50 at 72 h ([4]; across IC-21 and RAW 264.7 / cell line not given, compounds series) | CC50 at 72 h ([4]; cell line not stated, extracts series) | CC50 [5]
C[S+]([O-])CCCCN=C=S (centres unmarked) [sulforaphane] | 5 to 20 µM | – | – | – | – | – | – | –
Cc1c2oc3c(C)ccc(C(=O)N[C@@H]4C(=O)N[C@H](C(C)C)C(=O)N5CCC[C@H]5C(=O)N(C)CC(=O)N(C)[C@@H](C(C)C)C(=O)O[C@@H]4C)c3nc-2c(C(=O)N[C@@H]2C(=O)N[C@H](C(C)C)C(=O)N3CCC[C@H]3C(=O)N(C)CC(=O)N(C)[C@@H](C(C)C)C(=O)O[C@@H]2C)c(N)c1=O [ACTD, actinomycin D, reference compound] (I: T[dV]P[Sar][NMeV] / II: T[dV]P[Sar][NMeV]; ester I:1-I:C, II:1-II:C; linker I:N-II:N via Actinocin(9to1)) | – | 8.5 nM | 0.0143 µg/mL | 8.8 nM | 0.0193 µg/mL | 8.5 to 8.8 nM | 0.01 µg/mL | 8 nM
